Experimental data reported in patent US10568897B2, “Bidens pilosa and polyacetylenic compounds for prevention and treatment of coccidiosis” (ACADEMIA SINICA, priority 2011, dated 2020).

System: E. tenella
Experiment: Eimeria infection (coccidiosis) in chickens: survival, body weight, clinical symptoms, gut lesions, excreted oocysts
Type: in vivo
Settings: for Body weight Day 21: diet with 6 mg/kg maduramicin or 50 g/kg BPP for 7 days, 6 mg/kg
Method: FIGS. 3 A-F show the effect of BPP on the survival rate (FIG. 3A), sick bird appearance (FIG. 3B) and clinical symptoms (FIG. 3C) in the chickens. One-day-old chickens were fed with control diet for 14 days. On day 14, the birds were infected with vehicle (CTR) or E. tenella (ET) and fed with control diet (CTR and ET groups) and the diet containing 6 mg/kg maduramicin (ET+Mad), or 5%, or 1%, or 0.5% of BPP (ET+BPP) for additional 7 days. After the birds were sacrificed, the cecum was dissected and fixed for hematoxylin and eosin Y staining. The representative images of cecal hemorrhagic lesions (FIG. 3D) and histopathology (FIG. 3E) are shown.
One-d-old Lohmann broiler chicks hatched at Taichung Hatchery (Taiwan) were wing-banded upon arrival, weighed, and randomly placed in Petersime starter brooder units. At 1 and 2 d post-hatch, the birds were given free access to water and diets. The diets were formulated by mixing the base diet (Chicken feed, Taiwan Sugar Corporation) with carrier alone (control diet) or the indicated dose of B. pilosa power (BPP diet). In case of cytopiloyne experiments, the animal was administered with 45 μg of isolated cytopiloyne each day. After grouping, birds were tube-fed with Eimeria oocysts. Growth performance (body weight and feed conversion), pathology (bloody droppings and gut morphometry) and survival rate were measured and examined. All birds were maintained in the institutional animal facility and handled according to the guidelines of the Academia Sinica Institutional Animal Care and Utilization Committee.
Since B. pilosa was claimed to treat protozoan and bacterial infections, we tested whether B. pilosa could protect the chickens from coccidiosis. To this end, we infected the […] birds with vehicle and Eimeria oocysts. The birds were given control diet, the control diet mixed with maduramicin, a commercial anti-coccidial, and 10% BPP diet. […] In contrast, 60% of the birds with Eimeria infection survived 7 days post-infection (FIG. 3A). However, treatment with a dose (6 mg/k) of maduramicin and a dose (50 g/kg) of […] BPP increased the survival rate of the birds with Eimeria infection by 30% (FIG. 3A). […] However, treatment with maduramicin and BPP increased body weight from 132.5 g to 145.4 g and 154.3 g. respectively (Table 2). […] One-d-old chickens were fed with control diet for 14 days. On day 14, the birds were infected with vehicle (CTR) or E. tenella (ET) and fed with control diet (CTR and ET groups) and the diet containing 6 mg/kg maduramicin (ET+Mad) or 50 g/kg BPP (E+T BPP) for additional 7 days. Body weight was measured. The number of the birds in each group is indicated in the parentheses.
Next, we checked clinical symptoms of the chickens with or without Eimeria infection. […] In contrast, the birds with Eimeria infection show the typical sick bird appearances (FIG. 3B). […] In contrast, treatment with maduramicin or BPP reduced bloody droppings and diarrhea (FIG. 3C).
The gut lesions of the birds 7 days post-infection were also examined. Hemorrhagic lesions in the cecum of the birds infected with Eimeria oocysts were observed (FIG. 3D). In contrast, treatment with maduramicin and BPP alleviated the severity of hemorrhagic lesions (FIG. 3D).
The excretion of oocysts is an important indicator of the efficacy of anti-coccidial drug. Thus, we assessed the number of excreted oocysts from the chickens with Eimeria infection. […] The data on the effect of BPP on the reduction of the excreted oocysts are consistent with the alleviation of the clinical symptoms by BPP. […] One-d-old chickens were fed with control diet for 14 days. On day 14, the birds were infected with vehicle (CTR) or E. tenella (ET) and fed with control diet (CTR and ET groups) and the diet containing 6 mg/kg maduramicin (ET+Mad) or 50 g/kg BPP (ET+BPP) for additional 7 days. The number of the excreted oocysts in the feces (oocysts per gram) of the birds was determined. […]

[1] = E. tenella infected on day 14, diet with 6 mg/kg maduramicin or 50 g/kg BPP
[2] = Eimeria infected birds given diet with maduramicin or BPP

In the case of `CO[C@@H]1[C@@H](OC)[C@H](C)[C@@](O)(CC(=O)O)O[C@H]1[C@H](C)[C@H]1O[C@@]2(CC[C@@](C)([C@H]3CC[C@@](C)([C@@H]4O[C@@H]([C@H]5O[C@](C)(O)[C@H](C)C[C@@H]5C)C[C@@H]4O[C@@H]4C[C@H](OC)[C@@H](OC)[C@H](C)O4)O3)O2)C[C@H](O)[C@H]1C` [maduramicin, Maduramicin], the “Number of the excreted oocysts in the infected birds” value (6 mg/kg maduramicin or 50 g/kg BPP diet) is reported as “reduced half”, the “Severity of hemorrhagic lesions in the cecum” value (7 days post-infection) is reported as “alleviated” and the “Number of villi and depth of crypts in the gut” value (7 days post-infection, histostaining) is reported as “increased”. For the same compound, the “Excreted oocysts in the feces Day 4” value [1] was 5 ± 0.3 oocysts per gram, the “Excreted oocysts in the feces Day 5” value [1] was 78 ± 3.8 oocysts per gram and the “Excreted oocysts in the feces Day 6” value [1] was 187 ± 4.7 oocysts per gram. For the same compound, the “Excreted oocysts in the feces Day 7” value [1] was 343 ± 52.2 oocysts per gram, the “Body weight Day 21” value (E. tenella infected on day 14) was 145.4 g and the “Body weight Day 21” value (E. tenella infected on day 14, listed as Mad) was 145.4 ± 6.2 g. For the same compound, the “Bloody droppings and diarrhea” value [2] was “reduced” and the “Sick bird appearance (droopiness, listlessness, ruffled feather)” value [2] was “no obvious sick bird appearance”.
